US10822331B2, “Processes for preparing ATR inhibitors” (Vertex Pharmaceuticals Incorporated, priority 2011, dated 2020)

System: HCT116 colorectal cancer cells
Assay: Cisplatin sensitization assay (96 h MTS cell viability)
Type: cell-based
Conditions: concentration of compound required to reduce the IC50 of Cisplatin alone by at least 3-fold, HCT116, 96 h
Experimental: Compounds can be screened for their ability to sensitize HCT116 colorectal cancer cells to Cisplatin using a 96 h cell viability (MTS) assay. […] Compounds and Cisplatin are then both added simultaneously to the cell media in 2-fold serial dilutions from a top final concentration of […] as a full matrix of concentrations in a final cell volume of 200 μl, and the cells are then incubated at 37° C. in 5% CO2. After 96 h, 40 μl of MTS reagent (Promega G358a) is added to each well and the cells are incubated for 1 h at 37° C. in 5% CO2.

Compound	Cisplatin sensitization
[2H]C([2H])([2H])NCc1ccc(-c2cc(-c3nc(-c4ccc(S(=O)(=O)C(C)C)cc4)cnc3N)on2)cc1 [II-3, 5-(4-isopropylsulfonylphenyl)-3-[3-[4-[(trideuteriomethylamino)methyl]phenyl]isoxazol-5-yl]pyrazin-2-amine]	39 nM
[2H]C([2H])(NC)c1ccc(-c2cc(-c3nc(-c4ccc(S(=O)(=O)C(C)C)cc4)cnc3N)on2)cc1 [II-1, 3-[3-[4-[dideuterio(methylamino)methyl]phenyl]isoxazol-5-yl]-5-(4-isopropylsulfonylphenyl)pyrazin-2-amine]	39 nM
[2H]C([2H])([2H])NC([2H])([2H])c1ccc(-c2cc(-c3nc(-c4ccc(S(=O)(=O)C(C)C)cc4)cnc3N)on2)cc1 [II-2, 3-[3-[4-[dideuterio-(trideuteriomethylamino)methyl]phenyl]isoxazol-5-yl]-5-(4-isopropylsulfonylphenyl)pyrazin-2-amine]	29 nM
